The conditions of series [1]: topical nepafenac, Cmax, cited from earlier work.
For series [2] the following is noted: DEPOT sub-Tenon's sac, steady-state, cited from earlier work.
Series [3] is described as follows: Dexamethasone periocular DEPOT (sub-Tenon injection), retina-choroid concentrations, literature comparison. It counts as in vivo. The conditions noted are these: dexamethasone sub-Tenon DEPOT versus SD-8381 DEPOT. How it is done: For comparison, the concentrations in the retina-choroid for a DEPOT of a similar lipophilic small molecule, dexamethasone, when placed very close to the retina (sub-Tenon injection) were 0.31 and 0.93 μM [Huang Z, Yang W, Zong Y, Qiu S, Chen X, Sun X, Zhou Y, Xie Z, and Gao Q. A study of the dexamethasone sodium phosphate release properties from a periocular capsular drug delivery system. Drug Delivery 2016:23; 839-847]. […] Also, these dexamethasone data are for a situation where drug delivery has been optimized.

Series [4] is described as follows: Rabbit study: subconjunctival DEPOT of the ethyl ester of SD-8381 in sesame oil, drug concentration in ocular tissues and plasma by LC-MS. The format is in vivo, DB rabbits. The method, then:
All reagents were obtained from Sigma-Aldrich with the exception that sesame oil was obtained from Sawall, 2965 Oakland Dr, Kalamazoo, Mich. The ethyl ester of SD-8381 was formulated in sesame oil as a saturated solution at room temperature. Saturation was assured by warming under water warm to the touch for 10 minutes and noting that upon returning to room temperature the powder was in equilibrium with what was apparently a crystalline form of the drug in that the small amount of remaining drug was now transparent (for example, the compound had clearly dissolved and crystallized out of solution). The formulation was checked for topical instillation irritancy. Two male DB rabbits were sedated with isoflurane vapors to effect. Eyes were anesthetized with topical proparacaine, the area treated with ophthalmic betadine and rinsed with sterile saline. The test article was injected (0.05 mL) as a subconjunctival DEPOT to two male DB rabbits, OU using a 29 g needle.
The rabbits were sacrificed at a 6-days. Samples collected were (bilateral) aqueous humor, iris plus ciliary body, cornea, conjunctiva, sclera, choroid, retina, lens, vitreous humor and plasma which were placed in tared vials and stored at −20° C. prior to analysis. Care was taken to not cross contaminate fields by dissecting high concentration tissues as separately as possible from other tissues.
The free acid of SD-8381 was formed enzymatically using ethyl 6,8-dichloro-2-(trifluoromethyl)-2H-chromene-3-carboxylate and porcine esterase (all reagents and chemicals are from Sigma-Aldrich). The reaction was initiated by adding 5 mg of compound in methanol to 8 mg of esterase in 250 μL of 50 mM potassium phosphate pH 8 buffer. The reaction proceeded at 37° C. and was complete after 3 hours. Conversion of the […] to the free acid was monitored using HPLC-UV with 254 nm detection and confirmed by flow injection analysis using a Waters Quattro Micro mass spectrometer in negative ion mode at unit resolution. SD-8381 free acid was purified by HPLC fraction collection using a 4.6×250 mm Agilent Eclipse XDB-C18 column using 0.1% formic acid/H2O/acetonitrile mobiles phases. Fractions containing the free acid were dried in a weighed tube using a SpeedVac concentrator.
Free acid SD-8381 was reconstituted in methanol to establish w/v concentration standards for LC-MS analysis. Analytical standards were prepares using EDTA mouse plasma from BioVT. A dilution series of free acid SD-8381 in methanol were spiked into mouse plasma and each concentration was combined with 3 volumes of methanol containing 1 μM diclofenac as a surrogate internal standard as no stable-isotope labeled internal standard (SIL-IS) of SD-8381 is currently available. Standards and plasma blanks were vortex mixed and centrifuged at 13K×g for 5 minutes. Supernatant was transferred to glass insert vials and immediately analyzed by LC-MS analysis. Tissue samples were homogenized using a GE Healthcare sample grinding kit #80-6483-37 and 1 volume of DPBS containing 50% methanol. Proteins were precipitated using 2 additional volumes of methanol and vortex mixing for 5 minutes. Samples were centrifuged at 13K×g for 5 minutes. Supernatant was removed and dried in a SpeedVac concentrator under medium heat. Sample was reconstituted using methanol containing 1 uM Diclofenac. Samples were analyzed using a Waters nanoAcquity UPLC in-line with a high-resolution Waters Synapt G2-S mass spectrometer via an electrospray ion source. UPLC separation of used performed using a 0.375 mm×10 cm Waters XBridge C18 3.5 u column and a flow rate of 10 μL per minute. Mobile phases were 0.1% formic acid in water as mobile phase A and 0.1% formic acid in acetonitrile as mobile phase B. Gradient elution was accomplished with 1% B initial sample loading with ramping to 95% B at 3 minutes, holding at 95% B for 5 minutes, and returning to 1% B at 8.1 minutes. Total run time was 12 minutes and 5 μL of sample was injected per analysis. […]

Series [5] in a line: Plasma protein binding. The format is in vitro ADME.
Setting [6] is: DEPOT, steady-state, 6 days, high value of the same subject dropped.
Setting [7] is: SD-8381 free acid measured, subconjunctival DEPOT 0.05 mL OU of ethyl ester in sesame oil, rabbits sacrificed at 6 days.

Where “and” joins values, the source holds several entries; their conditions need not be identical. Identical values can stand only once. Like-named read-outs stand apart in the source and are kept apart here.

For `Nc1c(CC(=O)O)cccc1C(=O)c1ccccc1` [Amfenac, 2-amino-3-benzoylbenzeneacetic acid], in series [1], the Anterior choroid concentration result is on record as “(0.47) μM”, the Anterior retina concentration result is “(0.011) μM”, the Posterior choroid concentration was 0.042 µM and the Posterior retina concentration is 0.00077 µM. Moreover, in series [1] (listed as amfenac), the Anterior choroid concentration was 0.468 µM, the Anterior retina concentration is 0.011 µM, the Posterior choroid concentration was 0.0418 µM and the Posterior retina concentration is 0.000765 µM.

For the compound `C[C@@H]1C[C@H]2[C@@H]3CCC4=CC(=O)C=C[C@]4(C)[C@@]3(F)[C@@H](O)C[C@]2(C)[C@@]1(O)C(=O)CO` [Dexamethasone, dexamethasone], in series [2], the Choroid concentration is 0.92 µM and the Retina concentration is 0.31 µM. In series [2] (listed as dexamethasone), the Choroid concentration is 0.93 µM. The “Retina-choroid concentration compared with SD-8381” value in series [3] was “almost two orders of magnitude less”.

Take `NC(=O)Cc1cccc(C(=O)c2ccccc2)c1N` [Nepafenac, 2-amino-3-benzoylbenzeneacetamide]: in series [1], the Anterior choroid concentration entry was “(0.71) μM”, the Anterior retina concentration entry is on record as “(0.11) μM”, the Posterior choroid concentration was 0.055 µM and the Posterior retina concentration is 0.0027 µM. In addition, in series [1] (listed as nepafenac), the Anterior choroid concentration was 0.714 µM, the Anterior retina concentration is 0.110 µM, the Posterior choroid concentration is 0.0551 µM and the Posterior retina concentration is 0.00272 µM.

For `O=C(O)C1=Cc2cc(Cl)cc(Cl)c2OC1C(F)(F)F` (stereo not drawn) [SD-8381, 6.8-Dichloro-2-trifluoromethyl-2H-1-benzopyran-3-carboxylic acid], in series [4] (DEPOT, steady-state, 6 days), the “Choroid concentration, mean (n = 4)” value is listed as 96 (n = 4) μM and the “Retina concentration, mean (n = 4)” value is reported as 13 (n = 4) μM. Also, in series [4] (setting [6]), the “Choroid concentration, average with high value dropped (n = 3)” value was 20.9 μM and 21 (n = 3)* μM; the “Retina concentration, average with high value dropped (n = 3)” value was 5.17 μM and 5.2 (n = 3)* μM. In addition, the “Retina-choroid concentration at steady-state compared with nepafenac following topical administration” value in series [4] (SD-8381 DEPOT versus literature nepafenac) is “approximately two orders of magnitude higher”. Moreover, in series [4] (setting [7]), the “Choroid concentration, individual values” was 322 µM and 9.78 µM and 2.43 µM and 50.4 µM; the “Retina concentration, individual values” was 36.8 µM and 2.01 µM and 9.14 µM and 4.37 µM. Besides, in series [4] (plasma versus ocular tissues), the “Plasma concentration relative to ocular tissues (fold less)” value is recorded as 10^2-10^4. Besides, the “Binding to plasma proteins” value in series [5] is given as “highly bound to plasma proteins”.

Turning to `CCOC(=O)C1=Cc2cc(Cl)cc(Cl)c2OC1C(F)(F)F` (stereo not drawn) [ethyl ester of SD-8381, ethyl 6,8-dichloro-2-(trifluoromethyl)-2H-chromene-3-carboxylate], the “Adverse events (excessive scratching, redness, other signs of irritation and pain)” value in series [4] (subconjunctival DEPOT 0.05 mL OU, saturated solution in sesame oil, two male DB rabbits) is given as “No apparent adverse events”.
